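Assay format: 96-well plates, 48-hour exposure. GI50 = concentration required for 50% inhibition of growth.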 The source made the active and inactive calls. No stated cut-off is given here; in the data, active = GI50 up to about 1.1 µM and inactive = higher.
Experiments:
Test in all cases: NCI-60 cell line screen, 48 h
786-0 = test system: 786-0
OVCAR-4 = test system: OVCAR-4
NCI/ADR-RES = test system: NCI/ADR-RES
CCRF-CEM = test system: CCRF-CEM
DU-145 = test system: DU-145
OVCAR-3 = test system: OVCAR-3
NCI-H522 = test system: NCI-H522
BT-549 = test system: BT-549
SF-268 = test system: SF-268
U-251 = test system: U-251
SF-539 = test system: SF-539
EKVX = test system: EKVX
A549 = test system: A549
HOP-62 = test system: HOP-62
UACC-62 = test system: UACC-62
RPMI-8226 = test system: RPMI-8226
OVCAR-8 = test system: OVCAR-8
ACHN = test system: ACHN
HCT-116 = test system: HCT-116
MOLT-4 = test system: MOLT-4
NCI-H23 = test system: NCI-H23
MDA-MB-231 = test system: MDA-MB-231
MDA-MB-435 = test system: MDA-MB-435
UO-31 = test system: UO-31
UACC-257 = test system: UACC-257
RXF 393 = test system: RXF 393
NCI-H460 = test system: NCI-H460
SK-OV-3 = test system: SK-OV-3
SN12C = test system: SN12C
T47D = test system: T47D
OVCAR-5 = test system: OVCAR-5
SK-MEL-28 = test system: SK-MEL-28
HOP-92 = test system: HOP-92
A498 = test system: A498
SNB-19 = test system: SNB-19
CAKI-1 = test system: CAKI-1
SW-620 = test system: SW-620
HCC 2998 = test system: HCC 2998
Malme-3M = test system: Malme-3M
SNB-75 = test system: SNB-75
K562 = test system: K562
HCT-15 = test system: HCT-15
PC-3 = test system: PC-3
COLO 205 = test system: COLO 205
KM12 = test system: KM12
SF-295 = test system: SF-295
MCF7 = test system: MCF7
SR = test system: SR
IGROV-1 = test system: IGROV-1
SK-MEL-2 = test system: SK-MEL-2
M14 = test system: M14
TK-10 = test system: TK-10
HT-29 = test system: HT-29
NCI-H226 = test system: NCI-H226
SK-MEL-5 = test system: SK-MEL-5
LOX IMVI = test system: LOX IMVI
MDA-N = test system: MDA-N
Hs-578T = test system: Hs-578T
HL-60 = test system: HL-60

In the case of Cc1n[nH]c(=O)n1/N=C/c1c[nH]c2ccccc12, the GI50 (786-0) is reported as > 100 µM (inactive), the GI50 (OVCAR-4) is reported as > 100 µM (inactive) and the GI50 (NCI/ADR-RES) is reported as > 100 µM (inactive). The GI50 (CCRF-CEM) was > 100 µM (inactive), the GI50 (DU-145) was > 100 µM (inactive) and the GI50 (OVCAR-3) was > 100 µM (inactive). For the same molecule, the GI50 (NCI-H522) was > 100 µM (inactive), the GI50 (BT-549) was 38.4 µM (inactive) and the GI50 (SF-268) was > 100 µM (inactive). For the same molecule, the GI50 (U-251) was > 100 µM (inactive), the GI50 (SF-539) was > 100 µM (inactive) and the GI50 (EKVX) was 50.7 µM (inactive). For the same molecule, the GI50 (A549) was > 100 µM (inactive), the GI50 (HOP-62) was > 100 µM (inactive) and the GI50 (UACC-62) was > 100 µM (inactive). The GI50 (RPMI-8226) was > 100 µM (inactive), the GI50 (OVCAR-8) was > 100 µM (inactive) and the GI50 (ACHN) was > 100 µM (inactive). The GI50 (HCT-116) was > 100 µM (inactive), the GI50 (MOLT-4) was > 100 µM (inactive) and the GI50 (NCI-H23) was 80.5 µM (inactive). The GI50 (MDA-MB-231) was > 100 µM (inactive), the GI50 (MDA-MB-435) was > 100 µM (inactive) and the GI50 (UO-31) was > 100 µM (inactive). For the same molecule, the GI50 (UACC-257) was > 100 µM (inactive), the GI50 (RXF 393) was 20.9 µM (inactive) and the GI50 (NCI-H460) was > 100 µM (inactive). For the same molecule, the GI50 (SK-OV-3) was > 100 µM (inactive), the GI50 (SN12C) was > 100 µM (inactive) and the GI50 (T47D) was > 100 µM (inactive). The GI50 (OVCAR-5) was 83.4 µM (inactive), the GI50 (SK-MEL-28) was > 100 µM (inactive) and the GI50 (HOP-92) was > 100 µM (inactive). The GI50 (A498) was > 100 µM (inactive), the GI50 (SNB-19) was > 100 µM (inactive) and the GI50 (CAKI-1) was > 100 µM (inactive). For the same molecule, the GI50 (SW-620) was > 100 µM (inactive), the GI50 (HCC 2998) was > 100 µM (inactive) and the GI50 (Malme-3M) was > 100 µM (inactive). For the same molecule, the GI50 (SNB-75) was 32.9 µM (inactive), the GI50 (K562) was > 100 µM (inactive) and the GI50 (HCT-15) was > 100 µM. The GI50 (PC-3) was > 100 µM (inactive), the GI50 (COLO 205) was > 100 µM (inactive) and the GI50 (KM12) was > 100 µM (inactive). For the same molecule, the GI50 (SF-295) was > 100 µM (inactive), the GI50 (MCF7) was > 100 µM (inactive) and the GI50 (SR) was > 100 µM (inactive). The GI50 (IGROV-1) was 35.2 µM (inactive), the GI50 (SK-MEL-2) was > 100 µM (inactive) and the GI50 (M14) was > 100 µM (inactive).

CCCCC(C)(C/C=C/[C@@H]1[C@@H](C(O)CCCCCC(=O)OC)C(=O)C[C@H]1O[Si](C)(C)C(C)(C)C)O[Si](C)(C)C (some centres not stated) was tested, and the GI50 (TK-10) was 97.7 µM (inactive), the GI50 (HT-29) was 78.5 µM (inactive) and the GI50 (786-0) was > 100 µM (inactive). The GI50 (OVCAR-4) was 86.7 µM (inactive), the GI50 (NCI/ADR-RES) was > 100 µM (inactive) and the GI50 (CCRF-CEM) was 25.8 µM (inactive). The GI50 (DU-145) was > 100 µM (inactive), the GI50 (OVCAR-3) was 91 µM (inactive) and the GI50 (NCI-H522) was 23.2 µM (inactive). For the same molecule, the GI50 (BT-549) was > 100 µM (inactive), the GI50 (SF-268) was 39.1 µM (inactive) and the GI50 (U-251) was 57.5 µM (inactive). For the same molecule, the GI50 (SF-539) was > 100 µM (inactive), the GI50 (EKVX) was > 100 µM (inactive) and the GI50 (A549) was 70.8 µM (inactive). For the same molecule, the GI50 (NCI-H226) was > 100 µM (inactive), the GI50 (HOP-62) was > 100 µM (inactive) and the GI50 (UACC-62) was 91.8 µM (inactive). For the same molecule, the GI50 (SK-MEL-5) was 92.7 µM (inactive), the GI50 (RPMI-8226) was 31.2 µM (inactive) and the GI50 (LOX IMVI) was 45.3 µM (inactive). The GI50 (OVCAR-8) was > 100 µM (inactive), the GI50 (ACHN) was 86.5 µM (inactive) and the GI50 (HCT-116) was 81.1 µM (inactive). The GI50 (MOLT-4) was 19.7 µM (inactive), the GI50 (NCI-H23) was > 100 µM (inactive) and the GI50 (MDA-MB-231) was > 100 µM (inactive). The GI50 (MDA-MB-435) was 74.3 µM (inactive), the GI50 (UO-31) was 33.7 µM (inactive) and the GI50 (UACC-257) was 62.1 µM (inactive). The GI50 (RXF 393) was 54.2 µM (inactive), the GI50 (NCI-H460) was 83.4 µM (inactive) and the GI50 (SK-OV-3) was > 100 µM (inactive). The GI50 (SN12C) was > 100 µM (inactive), the GI50 (OVCAR-5) was > 100 µM (inactive) and the GI50 (SK-MEL-28) was 77.4 µM (inactive). For the same molecule, the GI50 (HOP-92) was > 100 µM (inactive), the GI50 (SNB-19) was > 100 µM (inactive) and the GI50 (CAKI-1) was 38.4 µM (inactive). The GI50 (SW-620) was 59.3 µM (inactive), the GI50 (HCC 2998) was > 100 µM (inactive) and the GI50 (Malme-3M) was > 100 µM (inactive). For the same molecule, the GI50 (SNB-75) was 56.2 µM (inactive), the GI50 (K562) was 36.5 µM (inactive) and the GI50 (HCT-15) was 76.2 µM. For the same molecule, the GI50 (PC-3) was 34.9 µM (inactive), the GI50 (COLO 205) was > 100 µM (inactive) and the GI50 (KM12) was 58.3 µM (inactive). For the same molecule, the GI50 (SF-295) was > 100 µM (inactive), the GI50 (MCF7) was 42 µM (inactive) and the GI50 (SR) was 25.3 µM (inactive). The GI50 (IGROV-1) was > 100 µM (inactive), the GI50 (SK-MEL-2) was 58.7 µM (inactive) and the GI50 (M14) was > 100 µM (inactive).

OC(Cc1cnnc2ccccc12)C(Cl)(Cl)Cl (configuration not stated) was tested, and the GI50 (TK-10) was > 10 µM (inactive), the GI50 (MDA-N) was > 10 µM (inactive) and the GI50 (HT-29) was > 10 µM (inactive). The GI50 (786-0) was > 10 µM (inactive), the GI50 (OVCAR-4) was > 10 µM (inactive) and the GI50 (NCI/ADR-RES) was > 10 µM (inactive). The GI50 (CCRF-CEM) was > 10 µM (inactive), the GI50 (DU-145) was > 10 µM (inactive) and the GI50 (OVCAR-3) was > 10 µM (inactive). The GI50 (NCI-H522) was > 10 µM (inactive), the GI50 (SF-268) was > 10 µM (inactive) and the GI50 (U-251) was > 10 µM (inactive). For the same molecule, the GI50 (SF-539) was > 10 µM (inactive), the GI50 (EKVX) was > 10 µM (inactive) and the GI50 (A549) was > 10 µM (inactive). For the same molecule, the GI50 (NCI-H226) was > 10 µM (inactive), the GI50 (HOP-62) was > 10 µM (inactive) and the GI50 (UACC-62) was > 10 µM (inactive). For the same molecule, the GI50 (SK-MEL-5) was > 10 µM (inactive), the GI50 (RPMI-8226) was > 10 µM (inactive) and the GI50 (LOX IMVI) was > 10 µM (inactive). For the same molecule, the GI50 (OVCAR-8) was > 10 µM (inactive), the GI50 (ACHN) was > 10 µM (inactive) and the GI50 (HCT-116) was > 10 µM (inactive). The GI50 (MOLT-4) was > 10 µM (inactive), the GI50 (NCI-H23) was > 10 µM (inactive) and the GI50 (MDA-MB-231) was > 10 µM (inactive). The GI50 (MDA-MB-435) was > 10 µM (inactive), the GI50 (UO-31) was > 10 µM (inactive) and the GI50 (UACC-257) was > 10 µM (inactive). The GI50 (RXF 393) was > 10 µM (inactive), the GI50 (NCI-H460) was > 10 µM (inactive) and the GI50 (SK-OV-3) was > 10 µM (inactive). The GI50 (SN12C) was > 10 µM (inactive), the GI50 (T47D) was > 10 µM (inactive) and the GI50 (Hs-578T) was > 10 µM (inactive). For the same molecule, the GI50 (SK-MEL-28) was > 10 µM (inactive), the GI50 (HOP-92) was > 10 µM (inactive) and the GI50 (A498) was > 10 µM (inactive). For the same molecule, the GI50 (SNB-19) was > 10 µM (inactive), the GI50 (CAKI-1) was > 10 µM (inactive) and the GI50 (HL-60) was > 10 µM (inactive). The GI50 (SW-620) was > 10 µM (inactive), the GI50 (HCC 2998) was > 10 µM (inactive) and the GI50 (Malme-3M) was > 10 µM (inactive). For the same molecule, the GI50 (SNB-75) was > 10 µM (inactive), the GI50 (K562) was > 10 µM (inactive) and the GI50 (HCT-15) was > 10 µM. The GI50 (PC-3) was > 10 µM (inactive), the GI50 (COLO 205) was > 10 µM (inactive) and the GI50 (KM12) was > 10 µM (inactive). The GI50 (SF-295) was > 10 µM (inactive), the GI50 (MCF7) was > 10 µM (inactive) and the GI50 (SR) was > 10 µM (inactive). The GI50 (IGROV-1) was > 10 µM (inactive), the GI50 (SK-MEL-2) was > 10 µM (inactive) and the GI50 (M14) was > 10 µM (inactive).

From ChEMBL document CHEMBL1201862, “PubChem BioAssay data set” (2004)
